The test system of assay [1] is Male Lewis rats with heart failure induced by permanent ligation of the left descending coronary artery. Description: Cardiac contractility in vivo in heart failure (MI) rat model. Conditions: for cardiac contractility as measured by dP/dtmax (derivative of left ventricular pressure): heart failure rats, ejection fraction <35%, administered acutely for 30 min; for MI Rat Model dP/dtmax (%): in vivo, heart failure (MI) rat, acute administration for 30 min. The method, then:
Evidence for Improvement in Cardiac Contractility In Vivo in Heart Failure Rat Model
Based on the ex vivo findings in isolated heart assay, APJ agonists were dosed in vivo to investigate the translation of cardiac contractility in in vivo settings. Male Lewis rats (Charles River, USA) at 2-3 months of age were used for the study. Heart failure was induced by permanent ligation of the left descending coronary artery which results in injury to the heart with an ejection fraction of <35%. APJ agonists were administered dose dependently acutely for a period of 30 min.

The target in a further assay is human APJ receptor (Homo sapiens (Human), UniProt P35414). Description: [35S]GTPγS binding assay on membranes from CHO cells stably expressing human APJ receptor. It is filed as biochemical. Conditions: read-out: Activity hAPJ SPA EC50 IP. The gist of the method: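 Agonist-driven [35S]GTPγS (0.2 nM) binding was measured over 90 min at room temperature on human APJ-expressing CHO membranes with bead capture, in buffer containing 3 μM GDP, 200 mM NaCl and 5 mM MgCl2 (pH 7.5). Excess unlabelled GTPγS (100 μM) gave nonspecific signal; EC50 from non-linear fits.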
Sequence of human APJ receptor (P35414 whole entry): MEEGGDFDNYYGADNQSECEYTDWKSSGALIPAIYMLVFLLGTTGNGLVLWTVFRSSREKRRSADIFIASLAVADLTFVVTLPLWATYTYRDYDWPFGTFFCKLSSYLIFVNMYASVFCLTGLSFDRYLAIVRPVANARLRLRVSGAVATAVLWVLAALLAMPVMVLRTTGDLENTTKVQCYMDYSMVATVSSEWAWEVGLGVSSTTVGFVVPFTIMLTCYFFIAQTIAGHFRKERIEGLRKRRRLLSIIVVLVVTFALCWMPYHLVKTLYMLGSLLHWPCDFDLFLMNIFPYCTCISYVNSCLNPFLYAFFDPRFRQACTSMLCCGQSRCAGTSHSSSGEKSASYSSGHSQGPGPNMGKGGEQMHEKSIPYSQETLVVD
A general note: GTPγS is a poorly hydrolysed GTP analogue; its binding reports G protein activation.

In assay [2] the test system is isolated perfused rat hearts. Description: Ex vivo isolated perfused rat heart assay (Langendorff apparatus), load independent inotropic and lusitropic effects. Details: species or system Sprague Dawley rat. To be noted: for Isolated Heart Assay dP/dtmax (%) / Isolated Heart Assay dP/dtmin (%): ex vivo isolated perfused rat heart, percent change over vehicle; for Isolated Heart Assay dP/dtmax (%): contractility; for Isolated Heart Assay dP/dtmin (%): relaxation; for left ventricular dP/dtmax (load independent cardiac contractility) / left ventricular dP/dtmin (load independent cardiac relaxation, lusitropic effect): ex vivo naive Sprague Dawley rat hearts, Langendorff apparatus, compared with vehicle. The gist of the method: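 Hearts from naive Sprague Dawley rats were perfused retrograde via the aorta with oxygenated modified Krebs-Henseleit buffer on a Langendorff apparatus, with agonist infused at several concentrations. An LV balloon recorded dP/dtmax (contractility) and dP/dtmin (relaxation), expressed as percent change over vehicle.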

The subject of another assay is heart failure rats. Description: Cardiac function with APJ small molecule agonists in the presence of ACE inhibitor captopril in heart failure rats in vivo. Set-up: species or system rat. Conditions: captopril alone, acute settings. From the text: The interaction between […] (ACE2) and Apelin biology is complicated. To investigate the interaction between the Apelin-APJ and ACE signaling pathways, we examined the improvement in cardiac function with APJ small molecule agonists in the presence of ACE inhibitor captopril in heart failure rats in vivo. […] However, in the presence of an APJ agonist, there was a shift in potency to the left with marked improvement in contractility and ejection fraction without changes in heart rate. These findings provide a new reference for the understanding of the regulation of ACE2 for the renin angiotensin aldosterone system (RAAS), independent of AT1R signaling and offer new potential drug targets for the treatment of diseases such as hypertension and heart failure. This work clearly establishes that combination of an agonist of the APJ receptor with an ARB such as losartan and/or with an ACE inhibitor such as captopril which may play an important role in providing greater efficacy in treating heart failure patients, for example in improving contractility and ejection fraction without changing the heart rate.

By EC50 is commonly meant the concentration at which the effect is half-maximal. `COc1cccc(OC)c1-n1c(NS(=O)(=O)[C@@H](C)[C@H](C)c2ncc(C)cn2)nnc1[C@H]1CCCO1` (single isomer, unassigned) [Example 49.0, (2S,3R)-N-(4-(2,6-dimethoxyphenyl)-5-((S)-tetrahydrofuran-2-yl)-4H-1,2,4-triazol-3-yl)-3-(5-methylpyrimidin-2-yl)butane-2-sulfonamide or (2S,3R)-N-(4-(2,6-dimethoxyphenyl)-5-((R)-tetrahydrofuran-2-yl)-4H-1,2,4-triazol-3-yl)-3-(5-methylpyrimidin-2-yl)butane-2-sulfonamide]: in assay [1], the “cardiac contractility as measured by dP/dtmax (derivative of left ventricular pressure)” value was “increase in cardiac contractility” and the “MI Rat Model dP/dtmax (%)” value is 20.0%. Besides, on human APJ receptor, the 50% effective concentration (EC50) was determined as 1.8 nM. In assay [2], the “Isolated Heart Assay dP/dtmax (%)” value is listed as 20%; the “Isolated Heart Assay dP/dtmin (%)” value worked out at 55%; the “left ventricular dP/dtmax (load independent cardiac contractility)” value is listed as “increases load independent cardiac contractility”; the “left ventricular dP/dtmin (load independent cardiac relaxation, lusitropic effect)” value is listed as “increases load independent cardiac relaxation”.

On to `COc1cccc(OC)c1-n1c(NS(=O)(=O)[C@@H](C)[C@H](C)c2ncc(Cl)cn2)nnc1[C@H]1CCOC1` (single isomer, unassigned) [Example 60.0, (2S,3R)-3-(5-chloropyrimidin-2-yl)-N-(4-(2,6-dimethoxyphenyl)-5-((R)-tetrahydrofuran-3-yl)-4H-1,2,4-triazol-3-yl)butane-2-sulfonamide or (2S,3R)-3-(5-chloropyrimidin-2-yl)-N-(4-(2,6-dimethoxyphenyl)-5-((S)-tetrahydrofuran-3-yl)-4H-1,2,4-triazol-3-yl)butane-2-sulfonamide], for which, in assay [1], the “cardiac contractility as measured by dP/dtmax (derivative of left ventricular pressure)” value is reported as “increase in cardiac contractility” and the “MI Rat Model dP/dtmax (%)” value amounted to 20.0%. The concentration for a half-maximal effect (EC50) on human APJ receptor was 9.3 nM. In addition, in assay [2], the “Isolated Heart Assay dP/dtmax (%)” value was 19.1%; the “Isolated Heart Assay dP/dtmin (%)” value was determined as 18.3%; the “left ventricular dP/dtmax (load independent cardiac contractility)” value is recorded as “increases load independent cardiac contractility”; the “left ventricular dP/dtmin (load independent cardiac relaxation, lusitropic effect)” value is recorded as “increases load independent cardiac relaxation”.

On to `C[C@H](CS)C(=O)N1CCC[C@H]1C(=O)O` [Captopril, captopril], for which the “improvement in contractility or ejection fraction” value in the assay on heart failure rats is on record as “does not show a marked improvement in contractility or ejection fraction”.

The values are drawn from US10150760B2, “Compounds for use in preparing heterocyclic triazole agonists of the APJ receptor” (AMGEN INC., priority 2016, dated 2018).
